Data reported in patent publication EP4745135A1 (Gluetacs Therapeutics (Shanghai) Co., Ltd., priority 2023, dated 2025).

Key:
CK1α = target: T1, CK1α (Homo sapiens, UniProt P48729+Q96SW2); assay: Western blot, degradation of substrate protein in hPBMCs; assay type: cell-based
T1 construct: effects of the compounds of the present disclosure on the expression of target proteins in cells; endogenous in cells; host or cells: human PBMCs (Milecell Biotechnologies)

IKZF1 = target: T2, IKZF1 (Homo sapiens, UniProt Q13422+Q96SW2); assay: as above; assay type: cell-based
T2 construct: effects of the compounds of the present disclosure on the expression of target proteins in cells; endogenous in cells; host or cells: human PBMCs (Milecell Biotechnologies)

IKZF2 = target: T3, IKZF2 (Homo sapiens, UniProt Q96SW2+Q9UKS7); assay: as above; assay type: cell-based
T3 construct: effects of the compounds of the present disclosure on the expression of target proteins in cells; endogenous in cells; host or cells: human PBMCs (Milecell Biotechnologies)

IKZF3 = target: T4, IKZF3 (Homo sapiens, UniProt Q96SW2+Q9UKT9); assay: as above; assay type: cell-based
T4 construct: effects of the compounds of the present disclosure on the expression of target proteins in cells; endogenous in cells; host or cells: human PBMCs (Milecell Biotechnologies)

WEE1 = target: T5, WEE1 (Homo sapiens, UniProt P30291+Q96SW2); assay: as above; assay type: cell-based
T5 construct: effects of the compounds of the present disclosure on the expression of target proteins in cells; endogenous in cells; host or cells: human PBMCs (Milecell Biotechnologies)

GSPT1 = assay: as above; assay type: cell-based, Human
[1] = target: T6, human Cereblon WT GST-tagged protein (Homo sapiens, UniProt Q96SW2); assay: CRBN-binding affinity, HTRF (CEREBLON BINDING kit); details: for inhibition at 0.5 µM: read-out: Inhibition Rate at 0.5 µM (%); for inhibition at 2 µM: read-out: Inhibition Rate at 2 µM (%)
T6 construct: purchased CISBIO 64BDCRBNPEH

[2] = system: Human multiple myeloma cell (MM.1S); assay: Tumor cell proliferation inhibition (CellTiter-Meiluncell luminescent cell viability assay); details: Homo sapiens, MM1.S, 96 h; for inhibition at 0.01 µM: read-out: Inhibition Rate at 10 nM (%); for inhibition at 0.5 µM: read-out: Inhibition Rate at 500 nM (%)
[3] = system: Human multiple myeloma peripheral blood B lymphocyte cell (RPMI-8226); assay: as above; details: RPMI-8226, 96 h; for inhibition at 0.01 µM: read-out: Inhibition Rate at 10 nM (%); for inhibition at 0.5 µM: read-out: Inhibition Rate at 500 nM (%)
Method: The tumor cells used herein were cultured in a cell culture medium listed in table 2 at 37°C in an incubator with 5% CO2. Prior to experimentation, all cell lines used were correctly identified by STR profiling, and tested negative for mycoplasma contamination using a mycoplasma detection kit through routine screenings.
The IC50 values of the compounds of the present disclosure (including the compounds in Table 1 and Examples) were determined using the CellTiter-Meiluncell Luminescent Cell Viability Assay Kit from Dalian Meilun Biotech Co., Ltd. The detailed procedure is as follows: Tumor cells were seeded in 96-well cell culture plates at the densities specified in Table 3. On the following day, the test compounds of the present disclosure were subjected to serial dilution. The dilution can be performed according to one of the following two methods: • (1) The first dilution method: The test compounds of the present disclosure (including the compounds in Table 1 and Examples) were subjected to 5-fold serial dilutions starting from a highest concentration of 2000 µM, resulting in a total of 9 concentrations from high to low (2000, 400, 80, 16, 3.2, 0.64, 0.128, 0.0256, 0.00512 µM). Subsequently, 0.5 µL of the test compound dilution was transferred into the 96-well plate containing the cells, with each well containing 100 µL of cell culture medium. […] Into the 96-well plate, the diluted test compounds and corresponding detection reagents were added, resulting in final test compound concentrations of 500 nM and 10 nM, respectively. The experimental procedure is described below using the diluted 2 µM test compound as an example.
0.5 µL of the aforementioned diluted compound of the present disclosure (including the compounds in Table 1 and Examples) was added to the seeded cells in 100 µL of medium, yielding a final test compound concentration of 10 nM. After the cells were treated with the compounds of the present disclosure for a specified period, the cell viability assay reagent was added to the culture medium according to the kit's instructions to determine cell viability. […] All controls were treated using the same procedure as the compounds of the present disclosure. The growth inhibition curves for the compounds of the present disclosure were plotted using Prism GraphPad software, and the IC50 values were calculated therefrom.

[4] = system: Human acute T lymphocytic leukemia cell (Molt4); assay: as above; details: MOLT-4, 96 h; for inhibition at 0.01 µM: read-out: Inhibition Rate at 10 nM (%); for inhibition at 0.5 µM: read-out: Inhibition Rate at 500 nM (%)
[5] = system: Human myeloid monocytic leukemia cell (MV-4-11); assay: as above; details: MV4-11, 96 h; for inhibition at 0.01 µM: read-out: Inhibition Rate at 10 nM (%); for inhibition at 0.5 µM: read-out: Inhibition Rate at 500 nM (%)
[6] = Western blot, 24 hours of compound treatment, compounds tested at 50 nM and 500 nM (concentration for the table not stated)
[7] = 24 hours treatment, compounds at 50 nM and 500 nM (concentration behind the class not stated)

T1 sequence (P48729 whole entry): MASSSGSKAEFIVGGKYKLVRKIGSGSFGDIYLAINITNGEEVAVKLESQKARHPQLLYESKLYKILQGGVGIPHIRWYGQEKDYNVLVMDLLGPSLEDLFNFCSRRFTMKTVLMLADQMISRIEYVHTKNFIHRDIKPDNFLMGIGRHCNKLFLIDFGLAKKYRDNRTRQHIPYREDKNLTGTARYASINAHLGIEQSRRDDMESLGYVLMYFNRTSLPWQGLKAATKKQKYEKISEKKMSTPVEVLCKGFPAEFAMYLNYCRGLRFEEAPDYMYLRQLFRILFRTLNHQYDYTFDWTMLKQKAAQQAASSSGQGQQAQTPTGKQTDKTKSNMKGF
T1 sequence (Q96SW2 whole entry): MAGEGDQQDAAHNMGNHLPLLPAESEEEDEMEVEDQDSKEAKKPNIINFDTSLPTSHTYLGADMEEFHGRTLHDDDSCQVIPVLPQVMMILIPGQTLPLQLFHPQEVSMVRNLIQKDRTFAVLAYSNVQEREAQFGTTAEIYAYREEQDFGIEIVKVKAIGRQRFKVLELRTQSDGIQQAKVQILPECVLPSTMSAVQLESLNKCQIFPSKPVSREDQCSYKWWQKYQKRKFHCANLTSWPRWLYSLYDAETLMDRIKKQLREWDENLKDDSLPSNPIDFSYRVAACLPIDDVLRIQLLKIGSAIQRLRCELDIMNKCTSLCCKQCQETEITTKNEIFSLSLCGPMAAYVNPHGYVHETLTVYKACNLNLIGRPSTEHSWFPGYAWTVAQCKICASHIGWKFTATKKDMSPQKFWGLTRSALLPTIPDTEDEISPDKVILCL
T1 sequence (Q16531 whole entry partner): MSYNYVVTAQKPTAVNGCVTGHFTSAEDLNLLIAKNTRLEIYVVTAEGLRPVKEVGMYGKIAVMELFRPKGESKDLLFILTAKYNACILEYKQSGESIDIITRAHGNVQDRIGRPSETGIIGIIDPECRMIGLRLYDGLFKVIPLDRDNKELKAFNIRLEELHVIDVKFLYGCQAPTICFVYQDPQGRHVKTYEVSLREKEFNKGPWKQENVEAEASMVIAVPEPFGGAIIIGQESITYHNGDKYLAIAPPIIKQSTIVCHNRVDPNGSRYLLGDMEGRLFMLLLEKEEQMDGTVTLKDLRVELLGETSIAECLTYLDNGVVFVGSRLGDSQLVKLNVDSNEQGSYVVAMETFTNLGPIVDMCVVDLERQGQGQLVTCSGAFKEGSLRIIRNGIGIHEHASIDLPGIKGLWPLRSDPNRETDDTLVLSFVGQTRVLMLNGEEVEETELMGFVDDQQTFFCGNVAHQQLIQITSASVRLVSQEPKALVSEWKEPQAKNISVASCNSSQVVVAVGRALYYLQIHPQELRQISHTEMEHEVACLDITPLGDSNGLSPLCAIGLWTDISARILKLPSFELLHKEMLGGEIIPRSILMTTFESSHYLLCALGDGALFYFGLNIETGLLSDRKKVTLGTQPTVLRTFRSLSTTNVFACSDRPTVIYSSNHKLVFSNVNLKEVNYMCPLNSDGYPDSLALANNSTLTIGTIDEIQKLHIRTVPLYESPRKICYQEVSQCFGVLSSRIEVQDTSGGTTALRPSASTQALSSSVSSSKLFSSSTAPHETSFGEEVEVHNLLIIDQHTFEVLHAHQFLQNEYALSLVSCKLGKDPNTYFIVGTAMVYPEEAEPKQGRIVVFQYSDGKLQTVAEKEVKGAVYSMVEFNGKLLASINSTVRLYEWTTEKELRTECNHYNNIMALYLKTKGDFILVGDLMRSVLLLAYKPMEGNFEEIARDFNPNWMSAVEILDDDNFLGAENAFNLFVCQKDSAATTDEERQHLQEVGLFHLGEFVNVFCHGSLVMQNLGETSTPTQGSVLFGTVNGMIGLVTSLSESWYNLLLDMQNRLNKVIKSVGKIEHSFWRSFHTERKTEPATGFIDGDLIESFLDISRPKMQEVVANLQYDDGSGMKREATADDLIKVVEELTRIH
T2 sequence (Q13422 whole entry): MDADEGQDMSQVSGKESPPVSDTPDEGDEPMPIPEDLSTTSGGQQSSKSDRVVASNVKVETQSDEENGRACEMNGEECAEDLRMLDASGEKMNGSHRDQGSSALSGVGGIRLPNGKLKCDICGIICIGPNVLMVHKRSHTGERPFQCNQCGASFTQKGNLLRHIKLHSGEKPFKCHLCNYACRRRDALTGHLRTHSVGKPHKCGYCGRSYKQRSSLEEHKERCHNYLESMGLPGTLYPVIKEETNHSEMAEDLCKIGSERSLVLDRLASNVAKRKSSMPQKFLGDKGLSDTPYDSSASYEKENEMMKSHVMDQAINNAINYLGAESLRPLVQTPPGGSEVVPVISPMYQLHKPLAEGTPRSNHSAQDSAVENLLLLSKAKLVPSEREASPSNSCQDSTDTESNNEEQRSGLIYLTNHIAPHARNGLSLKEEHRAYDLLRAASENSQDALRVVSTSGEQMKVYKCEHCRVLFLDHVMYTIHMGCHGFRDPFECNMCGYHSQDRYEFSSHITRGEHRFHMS
T2 sequence (Q96SW2 whole entry): as the sequence (Q96SW2 whole entry) above
T2 sequence (Q16531 whole entry partner): as the sequence (Q16531 whole entry partner) above
T3 sequence (Q9UKS7 whole entry): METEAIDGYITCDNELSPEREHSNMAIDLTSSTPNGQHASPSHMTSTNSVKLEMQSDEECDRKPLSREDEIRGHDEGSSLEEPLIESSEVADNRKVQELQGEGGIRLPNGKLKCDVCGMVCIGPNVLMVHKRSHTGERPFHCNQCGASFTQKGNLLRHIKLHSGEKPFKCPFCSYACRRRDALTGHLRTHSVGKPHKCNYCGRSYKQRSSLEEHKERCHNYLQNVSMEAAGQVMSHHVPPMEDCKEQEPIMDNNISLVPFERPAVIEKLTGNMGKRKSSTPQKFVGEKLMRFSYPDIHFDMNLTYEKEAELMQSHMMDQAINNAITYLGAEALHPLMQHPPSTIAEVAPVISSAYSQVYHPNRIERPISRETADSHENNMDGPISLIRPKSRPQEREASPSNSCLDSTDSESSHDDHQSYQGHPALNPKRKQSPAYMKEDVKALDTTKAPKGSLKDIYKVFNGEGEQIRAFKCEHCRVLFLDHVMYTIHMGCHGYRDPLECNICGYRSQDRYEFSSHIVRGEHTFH
T3 sequence (Q96SW2 whole entry): as the sequence (Q96SW2 whole entry) above
T3 sequence (Q16531 whole entry partner): as the sequence (Q16531 whole entry partner) above
T4 sequence (Q9UKT9 whole entry): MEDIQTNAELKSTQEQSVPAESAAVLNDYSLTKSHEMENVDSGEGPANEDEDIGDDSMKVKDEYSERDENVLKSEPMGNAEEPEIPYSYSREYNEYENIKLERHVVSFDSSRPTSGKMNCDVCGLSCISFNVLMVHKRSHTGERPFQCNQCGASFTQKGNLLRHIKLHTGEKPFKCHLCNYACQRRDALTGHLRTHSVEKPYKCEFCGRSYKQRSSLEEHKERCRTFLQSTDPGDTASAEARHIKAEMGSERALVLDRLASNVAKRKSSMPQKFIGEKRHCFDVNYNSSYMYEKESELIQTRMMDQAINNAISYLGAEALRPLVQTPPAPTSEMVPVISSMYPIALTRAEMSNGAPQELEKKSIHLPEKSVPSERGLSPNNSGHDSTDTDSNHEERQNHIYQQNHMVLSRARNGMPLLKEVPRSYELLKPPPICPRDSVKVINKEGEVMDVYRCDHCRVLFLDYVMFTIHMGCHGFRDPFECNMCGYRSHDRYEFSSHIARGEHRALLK
T4 sequence (Q96SW2 whole entry): as the sequence (Q96SW2 whole entry) above
T4 sequence (Q16531 whole entry partner): as the sequence (Q16531 whole entry partner) above
T6 sequence (Q96SW2 whole entry): as the sequence (Q96SW2 whole entry) above
T5 sequence (P30291 whole entry): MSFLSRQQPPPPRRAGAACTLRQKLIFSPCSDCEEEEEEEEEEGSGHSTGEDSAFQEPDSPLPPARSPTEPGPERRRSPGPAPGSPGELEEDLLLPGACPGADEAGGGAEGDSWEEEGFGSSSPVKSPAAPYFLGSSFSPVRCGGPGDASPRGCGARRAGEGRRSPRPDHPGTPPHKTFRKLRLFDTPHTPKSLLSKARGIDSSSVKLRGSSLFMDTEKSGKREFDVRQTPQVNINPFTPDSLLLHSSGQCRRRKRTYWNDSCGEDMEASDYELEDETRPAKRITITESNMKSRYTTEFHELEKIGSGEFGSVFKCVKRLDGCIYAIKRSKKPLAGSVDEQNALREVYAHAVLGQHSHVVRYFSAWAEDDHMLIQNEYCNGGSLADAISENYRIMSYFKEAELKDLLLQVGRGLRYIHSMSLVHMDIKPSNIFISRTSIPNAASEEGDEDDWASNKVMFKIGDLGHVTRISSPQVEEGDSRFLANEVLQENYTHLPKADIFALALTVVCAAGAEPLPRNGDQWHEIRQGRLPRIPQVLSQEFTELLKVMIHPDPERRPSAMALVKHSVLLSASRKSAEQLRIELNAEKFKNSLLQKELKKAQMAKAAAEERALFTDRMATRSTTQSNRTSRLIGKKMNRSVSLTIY
T5 sequence (Q96SW2 whole entry): as the sequence (Q96SW2 whole entry) above
T5 sequence (Q16531 whole entry partner): as the sequence (Q16531 whole entry partner) above

Compound	CK1α substrate protein remaining % (CK1α; [6])	IKZF 1 substrate protein remaining % (IKZF1; [6])	IKZF2 substrate protein remaining % (IKZF2; [6])	IKZF3 substrate protein remaining % (IKZF3; [6])	Wee1 substrate protein remaining % (WEE1; [6])	GSPT1 substrate protein remaining % (GSPT1; [6])	inhibition at 0.5 µM [1] [%]	inhibition at 2 µM [1] [%]	inhibition at 0.01 µM [2] [%]	inhibition at 0.5 µM [2] [%]	inhibition at 0.01 µM [3] [%]	inhibition at 0.5 µM [3] [%]	inhibition at 0.01 µM [4] [%]	inhibition at 0.5 µM [4] [%]	inhibition at 0.01 µM [5] [%]	inhibition at 0.5 µM [5] [%]	other results
Cc1cccc(N2CCN(Cc3ccc4c(c3)CN(C3CCC(=O)NC3=O)C4=S)CC2)c1 (stereo not drawn) [GT-08602, 3-(1-thioxo-5-((4-(m-tolyl)piperazin-1-yl)methyl)isoindolin-2-yl)piperidine-2,6-dione]	B (80%< substrate protein remaining %≤ 100%)	B (80%< substrate protein remaining %≤ 100%)	B (80%< substrate protein remaining %≤ 100%)	B (80%< substrate protein remaining %≤ 100%)	A (0% ≤ substrate protein remaining % ≤ 80%)	A (0% ≤ substrate protein remaining % ≤ 80%)	40 to 53	80 to 100	10 to 20	80 to 100	10 to 20	70 to 80	-5 to 0	80 to 100	18 to 25	80 to 100	
O=C1CCC(N2Cc3cc(CN4CCN(c5n[nH]c6cc(F)ccc56)CC4)ccc3C2=S)C(=O)N1 (stereo not drawn) [GT-09260, 3-(5-((4-(6-fluoro-1H-indazol-3-yl)piperazin-1-yl)methyl)-1-thioxoisoindolin-2-yl)piperidine-2,6-dione]							60 to 80	80 to 100	10 to 20	80 to 100	5 to 10	40 to 50	20 to 30	80 to 100	18 to 25	80 to 100	CK1α substrate protein remaining % (CK1α; [7]): B (80%< substrate protein remaining %≤ 100%); IKZF 1 substrate protein remaining % (IKZF1; [7]): B (80%< substrate protein remaining %≤ 100%); IKZF2 substrate protein remaining % (IKZF2; [7]): B (80%< substrate protein remaining %≤ 100%); IKZF3 substrate protein remaining % (IKZF3; [7]): B (80%< substrate protein remaining %≤ 100%); Wee1 substrate protein remaining % (WEE1; [7]): B (80%< substrate protein remaining %≤ 100%); GSPT1 substrate protein remaining % (GSPT1; [7]): A (0% ≤ substrate protein remaining % ≤ 80%)
O=C1CCC(N2Cc3cc(CN4CCN(c5cccc(Br)c5)CC4)ccc3C2=S)C(=O)N1 (stereo not drawn) [GT-08238, 3-(5-((4-(3-bromophenyl)piperazin-1-yl)methyl)-1-thioxoisoindolin-2-yl)piperidine-2,6-dione]	B (80%< substrate protein remaining %≤ 100%)	B (80%< substrate protein remaining %≤ 100%)	B (80%< substrate protein remaining %≤ 100%)	B (80%< substrate protein remaining %≤ 100%)	B (80%< substrate protein remaining %≤ 100%)	A (0% ≤ substrate protein remaining % ≤ 80%)	53 to 60	80 to 100	70 to 80	70 to 80	20 to 30	50 to 60	30 to 40	80 to 100	5 to 10	80 to 100	
N#Cc1ccc(N2CCN(Cc3ccc(COc4cccc5c4CN([C@H]4CCC(=O)NC4=O)C5=S)cc3)CC2)c(F)c1 [GT-05957, (S)-4-(4-(4-(((2-(2,6-dioxopiperidin-3-yl)-1-thioxoisoindolin-4-yl)oxy)methyl)benzyl)piperazin-1-yl)-3-fluorobenzonitrile]									80 to 100	80 to 100	50 to 60	60 to 70			25 to 30	40 to 60	CK1α substrate protein remaining % (CK1α; [7]): B (80%< substrate protein remaining %≤ 100%); IKZF 1 substrate protein remaining % (IKZF1; [7]): A (0% ≤ substrate protein remaining % ≤ 80%); IKZF2 substrate protein remaining % (IKZF2; [7]): A (0% ≤ substrate protein remaining % ≤ 80%); IKZF3 substrate protein remaining % (IKZF3; [7]): A (0% ≤ substrate protein remaining % ≤ 80%); Wee1 substrate protein remaining % (WEE1; [7]): B (80%< substrate protein remaining %≤ 100%); GSPT1 substrate protein remaining % (GSPT1; [7]): A (0% ≤ substrate protein remaining % ≤ 80%); IC50 ([1]; CRBN binding, HTRF, 3 hours at room temperature, read-out: HTRF IC50): 100 to 500 nM
O=C1CCC(N2Cc3c(CN4CCN(C(c5ccc(F)cc5)c5ccc(F)cc5)CC4)cccc3C2=S)C(=O)N1 (stereo not drawn) [GT-08202, 3-(4-((4-(bis(4-fluorophenyl)methyl)piperazin-1-yl)methyl)-1-thioxoisoindolin-2-yl)piperidine-2,6-dione]	B (80%< substrate protein remaining %≤ 100%)	A (0% ≤ substrate protein remaining % ≤ 80%)	A (0% ≤ substrate protein remaining % ≤ 80%)	A (0% ≤ substrate protein remaining % ≤ 80%)	A (0% ≤ substrate protein remaining % ≤ 80%)	A (0% ≤ substrate protein remaining % ≤ 80%)	30 to 40	60 to 80			20 to 30	40 to 50			30 to 40	40 to 60	
O=C1CCC(N2Cc3cc(CN4CCN(c5cc(Cl)cc(Cl)c5)CC4)ccc3C2=S)C(=O)N1 (stereo not drawn) [GT-08624, 3-(5-((4-(3,5-dichlorophenyl)piperazin-1-yl)methyl)-1-thioxoisoindolin-2-yl)piperidine-2,6-dione]	B (80%< substrate protein remaining %≤ 100%)	B (80%< substrate protein remaining %≤ 100%)	B (80%< substrate protein remaining %≤ 100%)	B (80%< substrate protein remaining %≤ 100%)	B (80%< substrate protein remaining %≤ 100%)	A (0% ≤ substrate protein remaining % ≤ 80%)	30 to 40	80 to 100	20 to 30	80 to 100	10 to 20	60 to 70			18 to 25	80 to 100	
O=C1CCC(N2Cc3c(CN4CCN(C(=O)C5=C(c6ccc(F)cc6)CCCC5)CC4)cccc3C2=S)C(=O)N1 (stereo not drawn) [GT-08294, 3-(4-((4-(4'-fluoro-3,4,5,6-tetrahydro-[1,1'-biphenyl]-2-carbonyl)piperazin-1-yl)methyl)-1-thioxoisoindolin-2-yl)piperidine-2,6-dione]	A (0% ≤ substrate protein remaining % ≤ 80%)	B (80%< substrate protein remaining %≤ 100%)	B (80%< substrate protein remaining %≤ 100%)	B (80%< substrate protein remaining %≤ 100%)	B (80%< substrate protein remaining %≤ 100%)	B (80%< substrate protein remaining %≤ 100%)	30 to 40	80 to 100			20 to 30	40 to 50			40 to 60	60 to 80	
